Test results: patent US5891901A, “Substituted pyrroles” (Hoffmann-La Roche Inc., priority 1997, dated 1999)

Assays:
SW480 cells = assay: Antiproliferative activity, SW480 colon carcinoma cell line (MTT); assay type: cell-based; details: Homo sapiens, 168 h, MTT at day 7 post-drug addition, values marked * (Compounds A, B, C) are an average of two separate experiments
Procedure: (§1) The epithelial breast carcinoma cell line, MDA-MB435 and the colon carcinoma cell line, SW480, were purchased from ATCC (American Type Culture Collection) and were grown in culture in medium as recommended by ATCC. For analysis of the effect of various compounds on growth of these cells, the cells were plated at a concentration of 1500 cells/well in a 96 well tissue culture plate ("test plate"). The day after the cells were plated, the compounds to be analyzed were dissolved in 100% DMSO (dimethyl sulfoxide) to yield a 10 mM stock solution. Each compound was diluted in H2 O to 1 mM and was added to triplicate wells in the first row of a 96 well master plate which contains medium to yield a final concentration of 40 μM. The compounds were then serially diluted in medium in the "master plate". The diluted compound(s) were then transferred to test plates containing cells. A row of vehicle "control cells" received DMSO. The final concentration of DMSO in each well was 0.1%. At day 5 post-drug addition, the plate containing MDA-MB435 cells were analyzed as follows. Plates containing SW480 cells were analyzed at day 7 post-drug addition as follows.
(§2) MTT ([3-(4,5-dimethylthiazole-2-yl)-2,5-diphenyl-2H-tetrazolium bromide]; thiazolyl blue) was added to each well to yield a final concentration of 1 mg/ml. The plate was then incubated at 37° C. for 21/2-3 hours. The MTT containing medium was then removed and 50 μl of 100% ethanol was added to each well to dissolve the formazan. The absorbences were then read using an automated plate reader (Bio-tek microplate reader). IC50 's were calculated using the Reed and Munsch equation, see, Am. J. Hygiene Vol. 27 pgs. 493-497, 1938.

MDA-MB435 cells = assay: Antiproliferative activity, MDA-MB435 epithelial breast carcinoma cell line (MTT); assay type: cell-based; details: Homo sapiens, MDA-MB-435, 120 h, MTT at day 5 post-drug addition, values marked * (Compounds A, B, D) are an average of two separate experiments, read-out: Antiproliferative Activity, MDAMB435 IC50
Procedure: as §1, §2

| SMILES | IC50 (SW480 cells) [µM] | IC50 (MDA-MB435 cells) [µM] |
| --- | --- | --- |
| CSc1ccc2c(C3=C(c4cn(C)c5ccccc45)C(=O)NC3=O)cn(C)c2c1 [Compound B, 3-(6-methylsulfanyl-1-methyl-1H-indol-3-yl)-4-(1-methyl-1H-indol-3-yl)-pyrrole-2,5-dione] | 0.07 | 0.045 |
| CCc1ccc2c(C3=C(c4cn(C)c5ccccc45)C(=O)NC3=O)cn(C)c2c1 [Compound D, 3-(6-ethyl-1-methyl-1H-indol-3-yl)-4-(1-methyl-1H-indol-3-yl)-pyrrole-2,5-dione] | – | 0.08 |
| Cn1cc(C2=C(c3cn(C)c4cc(CC#N)ccc34)C(=O)NC2=O)c2ccccc21 [Compound E, {1-methyl-3-[4-(1-methyl-1H-indol-3-yl)-2,5-dioxo-2,5-dihydro-1H-pyrrol-3-yl]-1H-indol-6-yl}-acetonitrile] | – | 0.2 |

These reach a lower IC50 (MDA-MB435 cells). Values come first.

| IC50 (SW480 cells) [µM] | IC50 (MDA-MB435 cells) [µM] | SMILES |
| --- | --- | --- |
| 0.029 | 0.033 | Cc1ccc2c(C3=C(c4cn(C)c5ccccc45)C(=O)NC3=O)cn(C)c2c1 [Compound A, 3-(1,6-dimethyl-1H-indol-3-yl)-4-(1-methyl-1H-indol-3yl)-pyrrole-2,5-dione] |
| 0.07 | 0.03 | Cn1cc(C2=C(c3cn(C)c4cc(O)ccc34)C(=O)NC2=O)c2ccccc21 [Compound C, 3-(6-hydroxy-1-methyl-1H-indol-3-yl)-4-(1-methyl-1H-indol-3-yl)-pyrrole-2,5-dione] |
